Data published in ChEMBL document CHEMBL4266063, “Synthesis of Artemisinin-Estrogen Hybrids Highly Active against HCMV, P. falciparum, and Cervical and Breast Cancer” (ACS Med Chem Lett, 2018).
pEC50: −log10 of the molar value.

What was measured:
[1] = test system: MCF7; experiment: Antiproliferative activity against human MCF7 cells after 72 hrs by MTT assay; type: functional, cell-based; details: MCF7, 72 h
[2] = test system: HFF; experiment: Cytotoxicity against HFF measured over 7 days by microscopic analysis; type: cell-based; details: human, 168 h
[3] = test system: C-33-A; experiment: Antiproliferative activity against human C33A cells after 72 hrs by MTT assay; type: functional, cell-based
[4] = test system: HeLa; experiment: Antiproliferative activity against human HeLa cells after 72 hrs by MTT assay; type: functional, cell-based
[5] = test system: Human betaherpesvirus 5; experiment: Antiviral activity against GFP-fused Human cytomegalovirus AD169 infected in HFF measured 7 days post infection; type: functional, organism-based; details: Human betaherpesvirus 5, AD169, HFF, 168 h
[6] = test system: MDA-MB-361; experiment: Antiproliferative activity against human MDA-MB-361 cells after 72 hrs by MTT assay; type: functional, cell-based; details: MDA-MB-361, 72 h
[7] = test system: SiHa; experiment: Antiproliferative activity against human SiHa cells after 72 hrs by MTT assay; type: functional, cell-based
[8] = test system: Plasmodium falciparum; experiment: Antimalarial activity against synchronized ring stage of Plasmodium falciparum 3D7 infected in human erythrocytes after 72 hrs by SYBR Green1 dye based fluorescence assay; type: functional, organism-based; details: 3D7, 72 h
[9] = test system: Plasmodium falciparum; experiment: Potency index, ratio of chloroquine EC50 to test compound EC50 for synchronized ring stage of Plasmodium falciparum 3D7 infected in human erythrocytes; type: functional
[10] = test system: MDA-MB-231; experiment: Antiproliferative activity against human MDA-MB-231 cells after 72 hrs by MTT assay; type: functional, cell-based; details: MDA-MB-231, 72 h
[11] = test system: T47D; experiment: Antiproliferative activity against human T47D cells after 72 hrs by MTT assay; type: functional, cell-based

Row | SMILES | pEC50 [1] | Activity [2] | pEC50 [3] | pEC50 [4] | pEC50 [5] | pEC50 [6] | pEC50 [7] | pEC50 [8] | Ratio EC50 [9] | pEC50 [10] | pEC50 [11]
1 | COc1ccc2c(c1)CC[C@@H]1[C@@H]2CC[C@]2(C)[C@@H](O)[C@H](NC(=O)CCC(=O)O[C@@H]3O[C@@H]4O[C@@]5(C)CC[C@H]6[C@H](C)CC[C@@H]([C@H]3C)[C@@]46OO5)C[C@@H]12 | 5.33 | Non-Toxic | 6.06 | 4.94 | 5.61 | 6.19 | 4.59 | 8.42 | 2 | 5.16 | 6.13
2 | COc1ccc2c(c1)CC[C@@H]1[C@@H]2CC[C@]2(C)[C@@H](O)[C@H](N)C[C@@H]12 | 4.92 | – | 4.88 | 4.88 | – | 5.34 | 4.76 | – | – | 4.80 | 5.25
3 | COc1ccc2c(c1)CC[C@@H]1[C@@H]2CC[C@]2(C)C(=O)[C@H](n3cc(CO[C@H]4O[C@@H]5O[C@@]6(C)CC[C@H]7[C@H](C)CC[C@@H]([C@H]4C)[C@@]57OO6)nn3)C[C@@H]12 | 5.75 | Non-Toxic | 5.69 | 4.81 | 6.62 | 6.77 | 4.54 | 7.88 | – | 5.75 | 6.80
4 | C[C@H]1[C@@H](CC(=O)OC[C@H]2C[C@H]3[C@@H]4CCc5cc(OCc6ccccc6)ccc5[C@H]4CC[C@]3(C)[C@H]2O)O[C@@H]2O[C@@]3(C)CC[C@H]4[C@H](C)CC[C@@H]1[C@@]24OO3 | 6.35 | Non-Toxic | 6.82 | 4.85 | 6.66 | 6.74 | 4.79 | 6.89 | – | 6.07 | 6.03
5 | C[C@]12CC[C@@H]3c4ccc(OCc5ccccc5)cc4CC[C@H]3[C@@H]1C[C@H](CO)[C@@H]2O | 4.89 | – | 4.91 | 4.89 | – | 5.56 | 5.11 | 4.76 | – | 4.89 | 5.08
6 | COc1ccc2c(c1)CC[C@@H]1[C@@H]2CC[C@]2(C)[C@@H](O)[C@H](NC(=O)O[C@H]3O[C@@H]4O[C@@]5(C)CC[C@H]6[C@H](C)CC[C@@H]([C@H]3C)[C@@]46OO5)C[C@@H]12 | 5.99 | Non-Toxic | 6.24 | 5.78 | 6.64 | 6.16 | 5.21 | 8.11 | – | 5.73 | 5.93
7 | C[C@H]1[C@H](OC(=O)CCC(=O)OC[C@H]2C[C@H]3[C@@H]4CCc5cc(OCc6ccccc6)ccc5[C@H]4CC[C@]3(C)[C@H]2O)O[C@@H]2O[C@@]3(C)CC[C@H]4[C@H](C)CC[C@@H]1[C@@]24OO3 | 6.12 | Non-Toxic | 5.76 | < 4.52 | 6.42 | 6.70 | 4.55 | 7.47 | – | 5.64 | 6.66
8 | COc1ccc2c(c1)CC[C@@H]1[C@@H]2CC[C@]2(C)C(=O)[C@H](N=[N+]=[N-])C[C@@H]12 | < 4.52 | – | < 4.52 | < 4.52 | – | < 4.52 | < 4.52 | < 4.30 | – | < 4.52 | < 4.52
9 | C[C@@H]1CC[C@H]2[C@@H](C)C(=O)O[C@@H]3O[C@@]4(C)CC[C@@H]1[C@]32OO4 [ARTEMISININ] | – | – | – | – | < 5.00 | – | – | – | – | – | –
10 | C[C@H]1[C@@H](O)O[C@@H]2O[C@@]3(C)CC[C@H]4[C@H](C)CC[C@@H]1[C@@]24OO3 [ARTENIMOL] | 5.08 | – | 5.77 | 4.98 | < 5.00 | 5.77 | 4.53 | – | – | 4.97 | 5.34
11 | C[C@H]1[C@H](OC(=O)CCC(=O)O)O[C@@H]2O[C@@]3(C)CC[C@H]4[C@H](C)CC[C@@H]1[C@@]24OO3 [ARTESUNATE] | 5.38 | – | 5.74 | 4.92 | – | 5.64 | < 4.52 | 8.05 | – | 5.00 | 5.65
